PMC8744835, “Sterically Hindered Quaternary Phosphonium Salts (QPSs): Antimicrobial Activity and Hemolytic and Cytotoxic Properties” (International Journal of Molecular Sciences, 2021)

Columns and labels:
[1] = tested on: human erythrocytes; experiment: Hemolytic activity; format: cell-based; details: red blood cells
Source text: An important characteristic when assessing the biological activity of new chemical compounds is their cytotoxic effect on eukaryotic cells. The ability of an investigated compound to cause the destruction of human erythrocytes illustrates its toxic effect on the internal environment. The hemolysis assay is a simple screening test that can help in the study of cytotoxicity in more complex models. Cell lines obtained from various human organs and tissues that allow for adequate estimation of the effects of new potential drugs on cell metabolism can serve as experimental models.
The hemolytic activity of the QPSs was estimated by comparing the optical density of a solution containing the test compound with that of blood at 100% hemolysis. The experiments were carried out as previously described.

[2] = tested on: Chang liver cell line; experiment: Cytotoxicity assay (Cytell Cell Imaging, DAPI/propidium iodide); format: cell-based, human; details: for IC50: Homo sapiens, Chang liver, read-out: IC50 (concentration that causes the death of 50% of the cells), Chang liver cells; for IC50 (concentration that causes the death of 50% of the cells): Chang liver cells
[3] = tested on: Staphylococcus aureus ATCC 6538P FDA 209P; experiment: Antimicrobial activity, serial dilution technique in Mueller–Hinton Broth 2; format: cell-based; details: average of three ± SD, - means non-active; for MBC / MIC: Staphylococcus aureus, Sa; for MBC: read-out: Minimum Bactericidal and Fungicidal Concentration (MBC, MFC), Sa; for MIC: read-out: Minimum Inhibitory Concentration (MIC), Sa
Procedure, shortened: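 Antimicrobial activity against Staphylococcus aureus ATCC 6538P FDA 209P was measured by serial dilution in Mueller–Hinton Broth 2 at a bacterial load of 3.0 × 10^5 cfu/mL. Cultures were incubated at 37 °C, growth was recorded every 24 h for 5 days, and the experiment was done three times.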

[4] = tested on: Enterococcus faecalis ATCC 2921; experiment: as above; format: cell-based; details: average of three ± SD, - means non-active; for MBC / MIC: Enterococcus faecalis, ATCC2921, Ef; for MBC: read-out: Minimum Bactericidal and Fungicidal Concentration (MBC, MFC), Ef; for MIC: read-out: Minimum Inhibitory Concentration (MIC), Ef
Procedure, shortened: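 Antibacterial activity against Enterococcus faecalis ATCC 2921 was assessed by serial dilution in Mueller–Hinton Broth 2 with a bacterial load of 3.0 × 10^5 cfu/mL. Cultures were incubated at 37 °C, with growth recorded every 24 h for 5 days, and the experiment was performed three times.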

[5] = tested on: methicillin-resistant S. aureus MRSA-1; experiment: as above; format: cell-based, Staphylococcus aureus; details: - means non-active; for Minimum Inhibitory Concentration (MIC), MRSA-1 / MIC: MRSA-1 (resistant to fluoroquinolones and beta-lactams); for MIC: Staphylococcus aureus, MRSA, read-out: Minimum Inhibitory Concentration (MIC), MRSA-1
Procedure, shortened: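 Antimicrobial activity against methicillin-susceptible Staphylococcus aureus MRSA-1, a hospital isolate from a chronic tonsillitis patient that is resistant to fluoroquinolones and beta-lactams, was determined by serial dilution in Mueller–Hinton Broth 2. The bacterial load was 3.0 × 10^5 cfu/mL, incubation was at 37 °C, and growth was recorded every 24 h for 5 days.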

[6] = tested on: Bacillus cereus ATCC 10702 NCTC 8035; experiment: as above; format: cell-based; details: average of three ± SD, - means non-active; for MIC / MBC: Bacillus cereus, Bc; for MIC: read-out: Minimum Inhibitory Concentration (MIC), Bc; for MBC: read-out: Minimum Bactericidal and Fungicidal Concentration (MBC, MFC), Bc
Procedure, shortened: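 Antibacterial activity against Bacillus cereus ATCC 10702 NCTC 8035 was measured by serial dilution in Mueller–Hinton Broth 2 at a bacterial load of 3.0 × 10^5 cfu/mL. Cultures were kept at 37 °C and growth was read every 24 h for 5 days. The experiment was done three times, and MIC and bactericidal concentrations were determined.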

[7] = tested on: Escherichia coli ATCC 25922; experiment: as above; format: cell-based; details: average of three ± SD, - means non-active; for MIC: Escherichia coli, ATCC25922, Ec, read-out: Minimum Inhibitory Concentration (MIC), Ec
Procedure, shortened: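 Compounds were serially diluted in Mueller–Hinton Broth 2 and inoculated at 3.0 × 10^5 cfu/mL. Cultures were then incubated at 37 °C with growth recorded daily for 5 days. The MIC was taken as the minimum concentration inhibiting growth, from three experiments.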

[8] = tested on: methicillin-resistant S. aureus MRSA-2; experiment: as above; format: cell-based, Staphylococcus aureus; details: - means non-active; for Minimum Inhibitory Concentration (MIC), MRSA-2 / MIC: MRSA-2 (resistant to beta-lactams); for MIC: Staphylococcus aureus, MRSA, read-out: Minimum Inhibitory Concentration (MIC), MRSA-2
Procedure, shortened: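 Antimicrobial activity against methicillin-susceptible Staphylococcus aureus MRSA-2, a beta-lactam-resistant clinical isolate from a sinusitis patient at the Republican Clinical Hospital (Kazan), was assessed by serial dilution in Mueller–Hinton Broth 2. The inoculum was 3.0 × 10^5 cfu/mL. Cultures were incubated at 37 °C and read every 24 h for 5 days, in three repeat experiments.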

[9] = tested on: Candida albicans ATCC 10231; experiment: Fungicidal activity, serial dilution technique; format: cell-based; details: average of three ± SD, - means non-active
Procedure, shortened: (§1)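 Serial dilution in Mueller–Hinton Broth 2 with an inoculum of 3.0 × 10^5 cfu/mL, 37 °C, read every 24 h for 5 days; three repeats. MIC is the lowest concentration inhibiting visible growth of the test organism.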

[10] = tested on: Trichophyton mentagrophytes var. gypseum 1773; experiment: Fungicidal activity, serial dilution technique; format: cell-based; details: Tm; average of three ± SD; - means non-active
Procedure, shortened: as §1

[11] = tested on: Escherichia coli ATCC 25922; experiment: Antimicrobial activity, serial dilution technique in Mueller–Hinton Broth 2; format: cell-based; details: average of three ± SD, - means non-active; for MBC: Escherichia coli, ATCC25922, Ec, read-out: Minimum Bactericidal and Fungicidal Concentration (MBC, MFC), Ec
[12] = tested on: Pseudomonas aeruginosa ATCC 9027; experiment: as above; format: cell-based; details: Pseudomonas aeruginosa, ATCC9027, Pa, average of three ± SD, - means non-active

CCCCC[P+](C(C)(C)C)(C(C)(C)C)C(C)(C)C [Compound 5b]
HC50 (concentration that causes 50% hemolysis of erythrocytes) [1]: > 125 µg/mL
IC50 [2]: > 100 µg/mL

CCCCCCC[P+](C(C)(C)C)(C(C)(C)C)C(C)(C)C [Compound 7b]
MBC [3]: 62.5 µg/mL
HC50 (concentration that causes 50% hemolysis of erythrocytes) [1]: > 125 µg/mL
IC50 (concentration that causes the death of 50% of the cells) [2]: > 100 µg/mL

CCCCCCCC[P+](C(C)(C)C)(C(C)(C)C)C(C)(C)C [Compound 8b]
MBC [4]: 125 µg/mL
Minimum Bactericidal and Fungicidal Concentration (MBC, MFC), Sa [3]: 31.3 µg/mL
Minimum Inhibitory Concentration (MIC), Sa [3]: 31.3 µg/mL
Minimum Inhibitory Concentration (MIC), MRSA-1 [5]: 31.3 µg/mL
HC50 (concentration that causes 50% hemolysis of erythrocytes) [1]: > 125 µg/mL
IC50 (concentration that causes the death of 50% of the cells) [2]: > 100 µg/mL

CCCCCCCCCC[P+](C(C)(C)C)(C(C)(C)C)C(C)(C)C [Compound 10b]
Minimum Bactericidal and Fungicidal Concentration (MBC, MFC), Bc [6]: 125 ± 9 µg/mL
Minimum Inhibitory Concentration (MIC), Bc [6]: 7.8 ± 0.6 µg/mL
Minimum Bactericidal and Fungicidal Concentration (MBC, MFC), Ef [4]: 15.6 ± 1.2 µg/mL
Minimum Inhibitory Concentration (MIC), Ef [4]: 15.6 ± 1.3 µg/mL
Minimum Inhibitory Concentration (MIC), Ec [7]: 62.5 ± 5.4 µg/mL
Minimum Bactericidal and Fungicidal Concentration (MBC, MFC), Sa [3]: 3.9 ± 0.2 µg/mL
Minimum Inhibitory Concentration (MIC), Sa [3]: 3.9 ± 0.2 µg/mL
Minimum Inhibitory Concentration (MIC), MRSA-1 [5]: 1.9 ± 0.1 µg/mL
Minimum Bactericidal and Fungicidal Concentration (MBC, MFC), MRSA-1 [5]: 15.6 ± 1.3 µg/mL
Minimum Inhibitory Concentration (MIC), MRSA-2 [8]: 3.9 ± 0.2 µg/mL
Minimum Bactericidal and Fungicidal Concentration (MBC, MFC), MRSA-2 [8]: 7.8 ± 0.6 µg/mL
Minimum Bactericidal and Fungicidal Concentration (MBC, MFC), Ca ([9]; Ca): 31.3 ± 2.2 µg/mL
Minimum Inhibitory Concentration (MIC), Ca ([9]; Ca): 31.3 ± 2.4 µg/mL
Minimum Bactericidal and Fungicidal Concentration (MBC, MFC), Tm [10]: 125 ± 10 µg/mL
Minimum Inhibitory Concentration (MIC), Tm [10]: 125 ± 10 µg/mL
HC50 (concentration that causes 50% hemolysis of erythrocytes) [1]: > 125 µg/mL
IC50 (concentration that causes the death of 50% of the cells) [2]: 71 µg/mL
Minimum Bactericidal and Fungicidal Concentration (MBC, MFC), Ec [11]: 62.5 ± 5.5 µg/mL

CCCC[P+](C(C)(C)C)(C(C)(C)C)C(C)(C)C [Compound 4a]
HC50 (concentration that causes 50% hemolysis of erythrocytes) [1]: > 125 µg/mL
IC50 [2]: > 100 µg/mL

CC[P+](C(C)(C)C)(C(C)(C)C)C(C)(C)C [Compound 2a]
HC50 (concentration that causes 50% hemolysis of erythrocytes) [1]: > 125 µg/mL
IC50 [2]: > 100 µg/mL

CCCCCCCCC[P+](C(C)(C)C)(C(C)(C)C)C(C)(C)C [Compound 9b]
Minimum Inhibitory Concentration (MIC), Bc [6]: 31.3 µg/mL
Minimum Bactericidal and Fungicidal Concentration (MBC, MFC), Ef [4]: 125 µg/mL
Minimum Inhibitory Concentration (MIC), Ef [4]: 31.3 µg/mL
Minimum Inhibitory Concentration (MIC), Ec [7]: 250 µg/mL
Minimum Bactericidal and Fungicidal Concentration (MBC, MFC), Sa [3]: 15.6 µg/mL
Minimum Inhibitory Concentration (MIC), MRSA-2 [8]: 31.3 µg/mL
HC50 (concentration that causes 50% hemolysis of erythrocytes) [1]: > 125 µg/mL
IC50 (concentration that causes the death of 50% of the cells) [2]: > 100 µg/mL
Minimum Bactericidal and Fungicidal Concentration (MBC, MFC), Ec [11]: 250 µg/mL

CCC[P+](C(C)(C)C)(C(C)(C)C)C(C)(C)C [Compound 3a]
HC50 (concentration that causes 50% hemolysis of erythrocytes) [1]: > 125 µg/mL
IC50 [2]: > 100 µg/mL

CCCCCC[P+](C(C)(C)C)(C(C)(C)C)C(C)(C)C [Compound 6b]
Minimum Inhibitory Concentration (MIC), Sa [3]: 250 ± 19 µg/mL
HC50 (concentration that causes 50% hemolysis of erythrocytes) [1]: > 125 µg/mL
IC50 (concentration that causes the death of 50% of the cells) [2]: > 100 µg/mL

CCCCCC[P+](C(C)(C)C)(C(C)(C)C)C(C)(C)C [Compound 6a]
MIC [3]: 125 ± 11 µg/mL
HC50 (concentration that causes 50% hemolysis of erythrocytes) [1]: > 125 µg/mL
IC50 [2]: > 100 µg/mL

CC(C)(C)[P+](C)(C(C)(C)C)C(C)(C)C [Compound 1a]
HC50 (concentration that causes 50% hemolysis of erythrocytes) [1]: > 125 µg/mL
IC50 [2]: > 100 µg/mL

CCCCCCCC[P+](C(C)(C)C)(C(C)(C)C)C(C)(C)C [Compound 8a]
MIC [6]: 31.3 µg/mL
MIC [4]: 62.5 µg/mL
MIC [7]: 125 µg/mL
MBC [3]: 62.5 µg/mL
MIC [8]: 31.3 µg/mL
HC50 (concentration that causes 50% hemolysis of erythrocytes) [1]: > 125 µg/mL
IC50 [2]: > 100 µg/mL
MBC [11]: 125 µg/mL

CCCCCCC[P+](C(C)(C)C)(C(C)(C)C)C(C)(C)C [Compound 7a]
MIC [6]: 125 ± 10 µg/mL
MIC [4]: 125 µg/mL
MIC [3]: 62.5 ± 5.5 µg/mL
HC50 (concentration that causes 50% hemolysis of erythrocytes) [1]: > 125 µg/mL
IC50 [2]: > 100 µg/mL

CCCCCCCCC[P+](C(C)(C)C)(C(C)(C)C)C(C)(C)C [Compound 9a]
MBC [6]: 125 µg/mL
MBC [4]: 125 µg/mL
MIC [4]: 62.5 µg/mL
MIC [7]: 125 µg/mL
MBC [3]: 15.6 µg/mL
MIC [3]: 7.8 µg/mL
MIC [5]: 7.8 µg/mL
HC50 (concentration that causes 50% hemolysis of erythrocytes) [1]: > 125 µg/mL
IC50 [2]: > 100 µg/mL
MBC [11]: 125 µg/mL

CCCCCCCCCCCCCC[P+](C(C)(C)C)(C(C)(C)C)C(C)(C)C [Compound 14a]
MBC [6]: 15.6 ± 1.3 µg/mL
Minimum Inhibitory Concentration (MIC), Bc [6]: 7.8 ± 0.6 µg/mL
Minimum Bactericidal and Fungicidal Concentration (MBC, MFC), Ef [4]: 3.9 ± 0.2 µg/mL
Minimum Inhibitory Concentration (MIC), Ef [4]: 1.9 ± 0.1 µg/mL
MIC [7]: 1.9 ± 0.1 µg/mL
MBC ([12]; read-out: Minimum Bactericidal and Fungicidal Concentration (MBC, MFC), Pa): 125 ± 11 µg/mL
MIC ([12]; read-out: Minimum Inhibitory Concentration (MIC), Pa): 15.6 ± 1.1 µg/mL
MBC [3]: 1.9 ± 0.1 µg/mL
Minimum Inhibitory Concentration (MIC), Sa [3]: 1.9 ± 0.2 µg/mL
Minimum Bactericidal and Fungicidal Concentration (MBC, MFC), MRSA-1 [5]: 7.8 ± 0.6 µg/mL
MIC [5]: 0.5 ± 0.03 µg/mL
Minimum Bactericidal and Fungicidal Concentration (MBC, MFC), MRSA-2 [8]: 62.5 ± 5.3 µg/mL
MIC [8]: 0.5 ± 0.04 µg/mL
MBC ([9]; Candida albicans, ATCC10231, Ca, read-out: Minimum Bactericidal and Fungicidal Concentration (MBC, MFC), Ca): 15.6 ± 1.2 µg/mL
MIC ([9]; Candida albicans, ATCC10231, Ca, read-out: Minimum Inhibitory Concentration (MIC), Ca): 7.8 ± 0.6 µg/mL
Minimum Bactericidal and Fungicidal Concentration (MBC, MFC), Tm [10]: 125 ± 10 µg/mL
Minimum Inhibitory Concentration (MIC), Tm [10]: 125 ± 11 µg/mL
Minimum Bactericidal and Fungicidal Concentration (MBC, MFC), Ec [11]: 1.9 ± 0.1 µg/mL
